The text below walks through data of PubChem BioAssay AID720513 (Broad Institute, 2013).

Records with an inconclusive call do not appear.

The assay has as its system U2OS PGC1a acetylation AlphaLISA, overnight. The assay is described as follows: activators raising PGC1a acetylation in cells, dose response, cell-based, cherry-picked samples, set 6 (AID 720513).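 Note: cells made to overexpress flag tagged PGC1a plus GCN5 acetyltransferase by viral infection.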
Turning to `COC(=O)c1ccc2[nH]c3cccc(/C(=C/c4ccccc4)c4ccccc4)c3c2c1`, the AC40 was 3.62 µM.

As to `Cc1cccc(C)c1-n1nnnc1C(c1ccccc1OC(F)(F)F)N1CCC(n2c(=O)[nH]c3ccccc32)CC1` (stereo unspecified), the AC40 is 3.94 µM.

Regarding `CC(=O)c1cc(-c2ccccc2)n(CCC(=O)NC2CCCCC2)c1C`, the AC40 is 7.4 µM.

As to `N#Cc1ccc(Oc2cccnc2)cc1C#N`, the AC40 is 6.09 µM.

With `Cc1nnc(NCc2ccccc2)c2ccccc12`, the AC40 was 3.04 µM.

In the case of `CCN1CCN(c2ncc(C(=O)Nc3cc(Cl)ccc3OC)c3ccccc23)CC1`, the AC40 is 5.32 µM.

`CCOC(=O)C1=C[C@@H](C(C)(C)C)N(S(=O)(=O)c2ccc(C)cc2)[C@H]1c1cccc2ccccc12`: the AC40 is 0.543 µM.

On to `COc1ccc(OC(=O)N(C)C[C@H]2OCc3ccccc3-c3c(n(C)c4ccccc34)C(=O)N([C@H](C)CO)C[C@H]2C)cc1`, for which the AC40 was 6.06 µM.

Take `Nc1c(C(=O)Nc2ccccc2)c2nc3ccccc3nc2n1CCCN1CCOCC1`: the AC40 is 4.85 µM.

As to `Cc1cccc2cc(CN(Cc3ccc(F)cc3)Cc3nnnn3C3CCCC3)c(=O)[nH]c12`, the AC40 was 4.14 µM.

Regarding `O=[N+]([O-])c1ccc(S(=O)(=O)c2cccc(C(F)(F)F)c2)nc1`, the AC40 was 0.581 µM.

On to `CC(C)NC(=O)Nc1ccc2c(c1)C(=O)N([C@@H](C)CO)C[C@@H](C)[C@@H](CN(C)S(=O)(=O)c1ccccc1)OCCCC[C@H](C)O2`, for which the AC40 is 14.8 µM.

With `COc1ccc(S(=O)(=O)NNC(=O)c2csc(-n3nc(C)cc3C(F)(F)F)n2)cc1`, the AC40 was 7.43 µM.

As to `COc1ccccc1/C=C1\SC(=S)N(CCC(=O)NCCCn2ccnc2)C1=O`, the AC40 was 2.88 µM.

Consider `CCOC(=O)C1(N(CC)CC)Sc2cc(C)ccc2NC1=O` (stereo unspecified), for which the AC40 was 3.28 µM.

Consider `Cc1ccc(C(=O)N2CCN(c3ccc(NC(=O)c4ccc(Br)o4)cc3)CC2)cc1`, for which the AC40 was 3.72 µM.

With `CC(C)c1ccc(NC(=O)c2ccc3c(c2)CCN3S(C)(=O)=O)cc1`, the AC40 is 13.9 µM.

In the case of `O=C(Nc1ccc(-c2noc(-c3cccs3)n2)cc1)c1cccnc1`, the AC40 was 1.27 µM.

As for `COc1ccc(C#Cc2cnc3c(c2)C(=O)N([C@H](C)CO)C[C@H](C)[C@H](CN(C)S(=O)(=O)c2cccs2)O3)cc1OC`, the AC40 was 18.2 µM.

As to `O=C(Nc1ccc(F)cc1F)N1CCCN(c2ccc([N+](=O)[O-])cn2)CC1`, the AC40 was 3.36 µM.

On to `CCCCN=C1NC(=O)C(CC(=O)Nc2ccc(Cl)cc2)S1` (stereo unspecified), for which the AC40 is 3.53 µM.

For `CNC(=O)c1nnsc1S(=O)c1ccc(Cl)cc1` (stereo unspecified), the AC40 was 1.96 µM.

On to `Cc1cccc(OC2(c3ccccc3)OC(=O)c3ccccc32)c1C` (stereo unspecified), for which the AC40 was 3.37 µM.

With `COc1ccc(Br)cc1CNc1ccccc1`, the AC40 is 8.98 µM.

Turning to `NC(=O)Cn1cc(C(=O)c2cccs2)c2ccccc21`, the AC40 was 3.92 µM.

In the case of `Cc1ccc(OCC(=O)NCCCNC(=O)c2cccnc2)cc1C`, the AC40 is 2.1 µM.

For `O=C(CCCc1nc(-c2ccccc2Cl)no1)NCc1cccnc1`, the AC40 is 3.78 µM.

Turning to `O=C(NCc1cccs1)C1Cc2c(-c3ccc(Cl)cc3)ccnc2O1` (stereo unspecified), the AC40 was 8.86 µM.

On to `NC(=O)Cc1ccc2c(c1)[nH]c1ccccc12`, for which the AC40 is 1.33 µM.

Turning to `O=C(NCc1cccnc1)c1ccc(NC(=O)c2cccc([N+](=O)[O-])c2)cc1`, the AC40 is less than 0.16 µM.

Turning to `C[C@H](CO)N1C[C@H](C)[C@@H](CN(C)Cc2ccc3c(c2)OCO3)Oc2ccc(NC(=O)Nc3ccc4c(c3)OCO4)cc2CC1=O`, the AC40 was 18.2 µM.

For the compound `CCOC(=O)C(NC(=O)c1ccccc1OCC)(Nc1ncccn1)C(F)(F)F` (stereo unspecified), the AC40 is 1.32 µM.

On to `CCOCCn1c(CN(Cc2ccccc2)Cc2ccccc2)nc2c1c(=O)n(C)c(=O)n2C`, for which the AC40 is 6.65 µM.

For the compound `O=C(Nc1ccc(-c2noc(CCc3ccccc3)n2)cc1)c1cccnc1`, the AC40 was 0.346 µM.

Turning to `CSc1nn(-c2ccc(C(=O)OC(C(=O)NC(N)=O)C(C)C)cc2)c(=S)s1` (stereo unspecified), the AC40 is 4.42 µM.

As to `Cn1cc(-c2ccc(C(=O)NCc3cccc(Cl)c3)c3occc23)cn1`, the AC40 is 4.85 µM.
